The test system of one experiment is West Nile Fever virus. As to the kind of experiment: Activity against West Nile Fever virus (DSP0114), 4 concentration assay. Type of experiment: cell-based. On the procedure: (§1) The activity of dendrimeric compounds against Dengue virus (D) and West Nile Fever virus (WNF) was tested.
a) The compound [BHAlys][Lys]16[CONH-Ph-3,5-(SO3Na)2]32 (SPL compound 7674) was tested for activity against West Nile Fever virus (DSP0114) (the compound has a sulfonic acid- or sulfonate-containing moiety which is
A 4 concentration assay was used. The positive control was interferon-alpha.

A further experiment relates to Dengue Type 2 virus. As to the kind of experiment: Activity against Dengue Type 2 virus (DSP0196). Format: cell-based. The method, then: as §1
b) The compound [BHAlys] [Lys]16 [CSNH-4-Ph(SO3Na)]32 (SPL compound 2792) was tested for activity against Dengue Type 2 virus (DSP0196). (the compound has a sulfonic acid- or sulfonate-containing moiety which is […]

As to “[BHAlys][Lys]16[CONH-Ph-3,5-(SO3Na)2]32 [SPL compound 7674]”, in the experiment on West Nile Fever virus, the “activity against West Nile Fever virus (in words)” value was “not active”. Besides, the “EC50 NR” value in the experiment with West Nile Fever virus (West Nile Fever virus, NR readout) came to 34 µg/mL. Besides, in the experiment on West Nile Fever virus (West Nile Fever virus, VIS readout), the “EC50 VIS” value amounted to 22 µg/mL.

For the substance “[BHAlys] [Lys]16 [CSNH-4-Ph(SO3Na)]32 [SPL compound 2792]”, in the experiment on Dengue Type 2 virus, the “activity against Dengue Type 2 virus (in words)” value was “not active”. The “EC50 NR” value in the experiment on Dengue Type 2 virus (Dengue Type 2 virus, NR readout) came out at 50.3 µg/mL. In the experiment on Dengue Type 2 virus (Dengue Type 2 virus, VIS readout), the “EC50 VIS” value was over 100 µg/mL.

These data come from US20210236539A1, “METHOD OF PROPHYLAXIS OF ZIKA VIRUS INFECTION” (priority 2016, published 2021).
